Active and inactive are the calls of the source. The calls are words filed in the database; no cut-off is given here. Where a SMILES comes first, the peptide text is derived from it. The star is where a group is joined. Cam = NC(=O)C*
Legend:
[1] = tested on: Human immunodeficiency virus 1; test: Antiviral activity against R5 tropic HIV1 JR-CSF in PM1/CCR5 cells assessed as protection from virus-induced cytopathogenicity measuring capsid p24 level at 50 uM after 5 days by ELISA; type: functional; conditions: Human immunodeficiency virus 1, JRCSF ISOLATE, PM1/CCR5, 120 h
[2] = tested on: Human immunodeficiency virus 1; test: Antiviral activity against X4 tropic HIV1 NL4-3 in MT4 cells assessed as protection from virus-induced cytopathogenicity after 5 days by MTT assay; type: functional, organism-based; conditions: Human immunodeficiency virus 1, NL4-3, MT4, 120 h
[3] = tested on: Human immunodeficiency virus 1; test: Antiviral activity against R5 tropic HIV1 NL(AD8) in PM1/CCR5 cells assessed as protection from virus-induced cytopathogenicity at 6.25 uM after 5 days by MTT assay; type: functional; conditions: Human immunodeficiency virus 1, NL(AD8), PM1/CCR5, 120 h
[4] = Cytotoxicity against human MT4 cells after 5 days by MTT assay; type: cell-based
[5] = tested on: Human immunodeficiency virus 1; test: Antiviral activity against X4 tropic HIV1 NL4-3 in MT4 cells assessed as protection from virus-induced cytopathogenicity at 3.13 uM after 5 days by MTT assay; type: functional, organism-based
[6] = Aqueous solubility of the compound; type: physicochemical; conditions: buffer
[7] = tested on: Human immunodeficiency virus 1; test: Antiviral activity against R5 tropic HIV1 NL(AD8) in PM1/CCR5 cells assessed as protection from virus-induced cytopathogenicity after 5 days by MTT assay; type: functional, organism-based; conditions: Human immunodeficiency virus 1, NL(AD8), PM1/CCR5, 120 h
[8] = tested on: Human immunodeficiency virus 1; test: Antiviral activity against R5 tropic HIV1 JR-CSF in PM1/CCR5 cells assessed as protection from virus-induced cytopathogenicity measuring capsid p24 level after 5 days by ELISA; type: functional, cell-based; conditions: Human immunodeficiency virus 1, JRCSF ISOLATE, PM1/CCR5, 120 h

| SMILES | inhibition at 50 µM [1] [%] | EC50 [2] [µM] | inhibition at 6.25 µM [3] [%] | CC50 at 120 h [4] [µM] | inhibition [5] | solubility [6] | EC50 [7] [µM] | EC50 [8] [µM] |
| --- | --- | --- | --- | --- | --- | --- | --- | --- |
| CC[C@H](C)[C@H](NC(=O)[C@H](CCC(N)=O)NC(=O)[C@H](CCCNC(=N)N)NC(=O)[C@H](CO)NC(=O)CNC(=O)[C@H](CCC(=O)O)NC(=O)[C@H](CO)NC(=O)[C@@H](NC(=O)[C@H](CCC(=O)O)NC(=O)[C@H](CC(C)C)NC(C)=O)[C@@H](C)O)C(=O)N[C@@H](CC(C)C)C(=O)NCC(=O)N[C@@H](CCC(N)=O)C(=O)N[C@@H](CC(C)C)C(=O)N[C@@H](CCC(N)=O)C(=O)NCC(=O)N[C@@H](CSCC(N)=O)C(N)=O (Ac-LETSEGSRQILGQLQGC(Cam)-NH2) | 25 | 37 | 24 | > 50 | – | – | – | – |
| CC[C@H](C)[C@H](NC(=O)[C@H](Cc1cnc[nH]1)NC(=O)[C@H](CCCCN)NC(=O)[C@H](CC(C)C)NC(C)=O)C(=O)N[C@H](C(=O)N[C@@H](Cc1c[nH]c2ccccc12)C(=O)N[C@@H](C)C(=O)N[C@@H](CO)C(=O)N[C@@H](CCCNC(=N)N)C(=O)N[C@@H](CCC(=O)O)C(=O)N[C@@H](CC(C)C)C(=O)N[C@@H](CCC(=O)O)C(=O)N[C@@H](CCCNC(=N)N)C(=O)N[C@@H](Cc1ccccc1)C(=O)N[C@@H](C)C(=O)NCC(=O)N[C@@H](CSCC(=O)N[C@@H](CCCNC(=N)N)C(=O)N[C@@H](CCCNC(=N)N)C(=O)N[C@@H](CCCNC(=N)N)C(=O)N[C@@H](CCCNC(=N)N)C(=O)N[C@@H](CCCNC(=N)N)C(=O)N[C@@H](CCCNC(=N)N)C(=O)N[C@@H](CCCNC(=N)N)C(=O)N[C@@H](CCCNC(=N)N)C(N)=O)C(N)=O)C(C)C | – | – | – | 3.7 | inactive | – | – | – |
| CC[C@H](C)[C@H](NC(=O)[C@H](CCCNC(=N)N)NC(=O)[C@H](CCC(N)=O)NC(=O)[C@H](Cc1cnc[nH]1)NC(=O)[C@@H](NC(=O)[C@H](CO)NC(=O)[C@H](Cc1ccc(O)cc1)NC(=O)[C@H](CC(C)C)NC(=O)[C@@H](NC(=O)[C@H](C)NC(=O)[C@@H](NC(=O)[C@@H](NC(C)=O)[C@@H](C)O)[C@@H](C)CC)C(C)C)C(C)C)C(=O)N[C@@H](CC(=O)O)C(=O)N[C@H](C(=O)N[C@@H](CCCCN)C(=O)NCC(=O)N[C@@H](CSCC(N)=O)C(N)=O)C(C)C (Ac-TIAVLYSVHQRIDVKGC(Cam)-NH2) | – | 29 | – | > 50 | – | Insoluble | 13 | 8.1 |

From ChEMBL document CHEMBL1944566, “Conjugation of cell-penetrating peptides leads to identification of anti-HIV peptides from matrix proteins” (Bioorg Med Chem, 2012)
